Values joined by “and” are separate entries in the source; they are usually repeats but may differ in a detail not shown here. Identical values can stand only once.
Tests used:
MMP-1 = experiment: Inhibition test of matrix metalloproteinase expression in UVB-irradiated fibroblast Hs68 (western blotting): MMP-1; assay type: cell-based, human; details: expression relative to control group (1.00); UVB 40 mJ/cm^2, Hs68; 10 μg/mL
Protocol: (§1) A total of 5×10^5 fibroblast Hs68 (human foreskin fibroblast, Bioresource Collection and Research Center (BCRC) number:60038, purchased from Food Industry Research and Development Institute (FIRDI)) was counted and cultivated in a culture medium (90% Dulbecco's modified Eagle's medium adjusted with 4 mM of L-glutamine, containing 1.5 g/L NaHCO3, 4.5 g/L glucose, and 10% heat-inactivated fetal bovine serum) with a diameter of 10 cm. After the fibroblast Hs68 grew to a density of 80%, the culture solution was removed, and the cells were rinsed with 5 mL of a phosphate buffer saline (PBS) solution once. Then, 3 mL of a phenol red-free culture solution containing the Neonauclea reticulata leaf water extract with different concentrations ([…]) was added into the culture medium, and was reacted for 1 hour. The cells were placed under ultraviolet light (40 mJ/cm^2, Ultraviolet B (UVB)) for irradiation. […] Using luminescence imaging technology with an associated analysis software and LAS-4000 (FUJIFILM) to record the image, and a quantitative analysis was carried out by multi Gauge […] […]

MMP-3 = experiment: Inhibition test of matrix metalloproteinase expression in UVB-irradiated fibroblast Hs68 (western blotting): MMP-3; assay type: cell-based, human; details: expression relative to control group (1.00); UVB 40 mJ/cm^2, Hs68; 10 μg/mL
Protocol: as §1

MMP-9 = experiment: Inhibition test of matrix metalloproteinase expression in UVB-irradiated fibroblast Hs68 (western blotting): MMP-9; assay type: cell-based, human; details: expression relative to control group (1.00); UVB 40 mJ/cm^2, Hs68; 10 μg/mL
Protocol: as §1

[1] = Anti-oxidation test: DPPH free radicals removal test; assay type: biochemical; details: DPPH scavenging, 50 μg/mL
Protocol: A 100 μL of the Neonauclea reticulata leaf water extract, methanol extract, or the hydrolytes thereof with different concentrations (10 to 100 μg/mL) and a 100 μL. DPPH solution (200 μM) dissolved in methanol were added in a 96-well microplate, and were mixed evenly and placed under 37° C. away from light for 30 minutes. The absorbance of the mixture was determined by an enzyme immunoassay instrument under a wavelength of 517 nm. In this test, the extract was replaced by 50 vol % propylene glycol as the control group, and ascorbic acid (vitamin C) was used as a positive control group, and DPPH was replaced by methanol for determining the background value. The ability of the Neonauclea reticulata leaf extract to remove free radicals was calculated by the following formula. The results are shown in Table 5 to Table 7 and FIG. 12 to FIG. 14. [formula]

O=C(O[C@@H]1Cc2c(O)cc(O)cc2O[C@@H]1c1cc(O)c(O)c(O)c1)c1cc(O)c(O)c(O)c1 [EGCG]
MMP-1 (MMP-1): 1.10 ± 0.15 | MMP-3 (MMP-3): 1.15 ± 0.16 | MMP-9 (MMP-9): 0.95 ± 0.26

O=C1O[C@H]([C@@H](O)CO)C(O)=C1O [Vitamin C, ascorbic acid]
Inhibition ([1]; Table 5): 98.60 ± 0.32 | Inhibition Rate ([1]; Tables 6 and 7): 88.36 ± 2.71 and 97.99 ± 0.12
